From ChEMBL document CHEMBL1148998, “Limonoids from the seeds of Melia azedarach” (1986)

Key:
Salmonella typhimurium [1] = assay: Antibacterial activity against Salmonella Typhimurium at 6 mg/10 ml dimethylformamide; assay type: functional, Salmonella enterica subsp. enterica serovar Typhimurium
Klebsiella pneumoniae [2] = assay: Antibacterial activity against Klebsiella pneumoniae at 2 mg/10 ml dimethylformamide; assay type: functional
Salmonella typhimurium [3] = assay: Antibacterial activity against Salmonella Typhimurium at 2 mg/10 ml dimethylformamide; assay type: functional, Salmonella enterica subsp. enterica serovar Typhimurium
Salmonella typhimurium [4] = assay: Antibacterial activity against Salmonella Typhimurium at 8 mg/10 ml dimethylformamide; assay type: functional, Salmonella enterica subsp. enterica serovar Typhimurium
Vibrio cholerae [5] = assay: Antibacterial activity against Vibrio cholerae at 10 mg/10 ml dimethylformamide; assay type: functional
Klebsiella pneumoniae [6] = assay: Antibacterial activity against Klebsiella pneumoniae at 4 mg/10 ml dimethylformamide; assay type: functional
Escherichia coli [7] = assay: Antibacterial activity against Escherichia coli at 6 mg/10 ml dimethylformamide; assay type: functional
Salmonella typhimurium [8] = assay: Antibacterial activity against Salmonella Typhimurium at 10 mg/10 ml dimethylformamide; assay type: functional, Salmonella enterica subsp. enterica serovar Typhimurium
Escherichia coli [9] = assay: Antibacterial activity against Escherichia coli at 8 mg/10 ml dimethylformamide; assay type: functional
Escherichia coli [10] = assay: Antibacterial activity against Escherichia coli at 4 mg/10 ml dimethylformamide; assay type: functional
Escherichia coli [11] = assay: Antibacterial activity against Escherichia coli at 10 mg/10 ml dimethylformamide; assay type: functional
Vibrio cholerae [12] = assay: Antibacterial activity against Vibrio cholerae at 6 mg/10 ml dimethylformamide; assay type: functional
Escherichia coli [13] = assay: Antibacterial activity against Escherichia coli at 2 mg/10 ml dimethylformamide; assay type: functional
Vibrio cholerae [14] = assay: Antibacterial activity against Vibrio cholerae at 2 mg/10 ml dimethylformamide; assay type: functional
Klebsiella pneumoniae [15] = assay: Antibacterial activity against Klebsiella pneumoniae at 6 mg/10 ml dimethylformamide; assay type: functional
Klebsiella pneumoniae [16] = assay: Antibacterial activity against Klebsiella pneumoniae at 8 mg/10 ml dimethylformamide; assay type: functional
Vibrio cholerae [17] = assay: Antibacterial activity against Vibrio cholerae at 8 mg/10 ml dimethylformamide; assay type: functional
Klebsiella pneumoniae [18] = assay: Antibacterial activity against Klebsiella pneumoniae at 10 mg/10 ml dimethylformamide; assay type: functional
Vibrio cholerae [19] = assay: Antibacterial activity against Vibrio cholerae at 4 mg/10 ml dimethylformamide; assay type: functional
Salmonella typhimurium [20] = assay: Antibacterial activity against Salmonella Typhimurium at 4 mg/10 ml dimethylformamide; assay type: functional, Salmonella enterica subsp. enterica serovar Typhimurium

| SMILES | inhibition zone (IZ) (Salmonella typhimurium [1]) [mm] | inhibition zone (IZ) (Klebsiella pneumoniae [2]) [mm] | inhibition zone (IZ) (Salmonella typhimurium [3]) [mm] | inhibition zone (IZ) (Salmonella typhimurium [4]) [mm] | inhibition zone (IZ) (Vibrio cholerae [5]) [mm] | inhibition zone (IZ) (Klebsiella pneumoniae [6]) [mm] | inhibition zone (IZ) (Escherichia coli [7]) [mm] | inhibition zone (IZ) (Salmonella typhimurium [8]) [mm] | inhibition zone (IZ) (Escherichia coli [9]) [mm] | inhibition zone (IZ) (Escherichia coli [10]) [mm] | inhibition zone (IZ) (Escherichia coli [11]) [mm] | inhibition zone (IZ) (Vibrio cholerae [12]) [mm] | inhibition zone (IZ) (Escherichia coli [13]) [mm] | inhibition zone (IZ) (Vibrio cholerae [14]) [mm] | inhibition zone (IZ) (Klebsiella pneumoniae [15]) [mm] | inhibition zone (IZ) (Klebsiella pneumoniae [16]) [mm] | inhibition zone (IZ) (Vibrio cholerae [17]) [mm] | inhibition zone (IZ) (Klebsiella pneumoniae [18]) [mm] | inhibition zone (IZ) (Vibrio cholerae [19]) [mm] | inhibition zone (IZ) (Salmonella typhimurium [20]) [mm] |
| --- | --- | --- | --- | --- | --- | --- | --- | --- | --- | --- | --- | --- | --- | --- | --- | --- | --- | --- | --- | --- |
| CC(=O)OC1=C2C(C)(C)[C@@H](O[C@@H]3O[C@@H](C)[C@H](O)[C@@H](O)[C@H]3O)C=C[C@]2(C)[C@H]2[C@H](O)C[C@@]3(C)[C@H](c4ccoc4)C[C@H]4O[C@]43[C@]2(C)C1=O | 13 | 10 | 11 | 15 | 20 | 12 | 12 | 16 | 14 | 11 | 15 | 17 | 10 | 13 | 14 | 16 | 18 | 18 | 15 | 12 |
| CN[C@@H]1[C@H](O[C@H]2[C@H](O[C@H]3[C@H](O)[C@@H](O)[C@H](N=C(N)N)[C@@H](O)[C@@H]3N=C(N)N)O[C@@H](C)[C@]2(O)C=O)O[C@@H](CO)[C@H](O)[C@H]1O [STREPTOMYCIN] | – | – | – | – | 12 | – | – | 9 | – | – | 8 | – | – | – | – | – | – | 10 | – | – |
